The assay has as its target T1, human Keap1 kelch domain (amino acids Ala321-Thr609) (Homo sapiens, UniProt Q14145).
T1 construct: human Keap1 kelch domain (amino acids Ala321-Thr609)
The assay can be described thus: Keap1-Nrf2 peptide binding assay (fluorescence polarisation). As to conditions: binding to fluorescently labeled human Nrf2 peptide, 20 nM Keap1 kelch domain, 50 nM peptide. How it is done:
Keap1-Nrf2 peptide binding assay
Two microliters of test compound in reaction buffer (phosphate-buffered saline, 2 mM DL-dithiothreitol, 0.015 % (v/v) Brij-35) containing 6 % (v/v) DMSO were mixed with two microliters of the Keap1 kelch domain in reaction buffer in a black 384-well small volume microtiter plate and incubated at ambient temperature for 15 minutes. Thereafter, two microliters were added of the fluorescently labeled Nrf2 peptide in reaction buffer, and the mixture was incubated for a further 30 minutes at ambient temperature. Final concentrations of the Keap1 kelch domain and the fluorescently labeled Nrf2 peptide were 20 nM and 50 nM, respectively.
Fluorescence polarization (FP) was measured at excitation and emission wavelengths of 635 nm and 660 nm, respectively. Positive controls for binding (two microliters of reaction buffer containing 6 % (v/v) DMSO instead of test compound in the same buffer) and negative controls (as positive controls, but without Keap1 kelch domain) were included on each microtiter plate.
A general note: In fluorescence polarisation assays a small probe gives low polarisation when free and higher when bound to something large.

The values that follow come from patent publication EP2997966A1, “Naphthyl Sulfonamide Pyrrolidine Derivatives as KEAP-1 Modulators for the Treatment of Diabetes, Obesity, Dyslipidemia and Related Disorders” (SANOFI, priority 2014, dated 2016).

Where two headings read alike, the source gives them in different places.

T1 sequence (Q14145 321-609): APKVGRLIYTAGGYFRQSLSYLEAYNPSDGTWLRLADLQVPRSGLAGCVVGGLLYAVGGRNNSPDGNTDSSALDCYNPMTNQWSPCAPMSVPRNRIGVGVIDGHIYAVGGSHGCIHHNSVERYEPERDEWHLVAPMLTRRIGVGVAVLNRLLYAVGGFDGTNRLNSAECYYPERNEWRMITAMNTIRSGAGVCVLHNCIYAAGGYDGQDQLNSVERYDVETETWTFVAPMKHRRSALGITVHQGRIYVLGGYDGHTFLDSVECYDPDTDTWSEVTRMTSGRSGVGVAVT

By IC50 is commonly meant the concentration that inhibits the measured activity by half. `Cc1nc(C)c(S(=O)(=O)Nc2ccc(N3CC[C@H](C(=O)O)C3)c3ccccc23)s1` [Example 24, (3S)-1-[4-[(2,4-dimethylthiazol-5-yl)sulfonylamino]-1-naphthyl]pyrrolidine-3-carboxylic acid] registered an IC50 of 4300 nM. For the molecule `CCCCCCCCn1nc(C)c(S(=O)(=O)Nc2ccc(N3CC[C@@H](C(=O)O)C3)c3ncccc23)c1C` [Example 73], the IC50 (read-out: IC50) came out at 1600 nM.

Consider `O=C(O)[C@@H]1CCN(c2ccc(NS(=O)(=O)c3ccc4c(c3)CCCC4)c3ccccc23)C1` [Example 77, (3R)-1-[4-(tetralin-6-ylsulfonylamino)-1-naphthyl]pyrrolidine-3-carboxylic acid], for which the IC50 (read-out: IC50) was found to be 600 nM. The molecule `O=C(O)[C@@H]1CCN(c2ccc(NS(=O)(=O)c3cc(F)c(F)cc3Cl)c3ccccc23)C1` [Example 45, (3R)-1-[4-[(2-chloro-4,5-difluorophenyl)sulfonylamino]-1-naphthyl]pyrrolidine-3-carboxylic acid] displayed a half-inhibitory concentration (IC50) of 4500 nM. Regarding `O=C(O)[C@@H]1CCN(c2ccc(NS(=O)(=O)c3ccc(Cl)cc3Cl)c3ccccc23)C1` [Example 12, (3R)-1-[4-[(2,4-dichlorophenyl)sulfonylamino]-1-naphthyl]pyrrolidine-3-carboxylic acid], the IC50 (read-out: IC50) came to 1300 nM.

As for `Cc1nn(C)c(Cl)c1S(=O)(=O)Nc1ccc(N2CCC(C)(C(=O)O)C2)c2ccccc12` (centres unmarked) [Example 10, 1-[4-[(5-chloro-1,3-dimethyl-pyrazol-4-yl)sulfonylamino]-1-naphthyl]-3-methyl-pyrrolidine-3-carboxylic acid], the IC50 (read-out: IC50) stood at 1000 nM.

With `O=C(O)[C@@H]1CCN(c2ccc(NS(=O)(=O)c3ccc(Cl)c(C(F)(F)F)c3)c3ccccc23)C1` [Example 40, (3R)-1-[4-[[4-chloro-3-(trifluoromethyl)phenyl]sulfonylamino]-1-naphthyl]pyrrolidine-3-carboxylic acid], the concentration for half-maximal inhibition (IC50) (read-out: IC50) is 5000 nM. Take `Cc1c(S(=O)(=O)Nc2ccc(N3CC[C@@H](C(=O)O)C3)c3ncccc23)sc2cccc(F)c12` [Example 70, (3R)-1-[5-[(4-fluoro-3-methyl-benzothiophen-2-yl)sulfonylamino]-8-quinolyl]pyrrolidine-3-carboxylic acid]: where the note is “read-out: IC50”, the concentration for half-maximal inhibition (IC50) worked out at 300 nM. Same read-out and setting: then `Cc1c(S(=O)(=O)Nc2ccc(N3CC[C@H](C(=O)O)C3)c3ccccc23)cnn1C1CCCC1` [Example 30, (3S)-1-[4-[(1-cyclopentyl-5-methyl-pyrazol-4-yl)sulfonylamino]-1-naphthyl]pyrrolidine-3-carboxylic acid], with 4100 nM; and `Cc1cc(C)c(C)c(S(=O)(=O)Nc2ccc(C3=CCC(C(=O)O)CC3)c3ccccc23)c1C` (centres unmarked) [Example 57, 4-[4-[(2,3,5,6-tetramethylphenyl)sulfonylamino]-1-naphthyl]cyclohex-3-ene-1-carboxylic acid], with 600 nM. For the molecule `Cc1c(S(=O)(=O)Nc2ccc(N3CC[C@@H](C(=O)O)C3)c3ncccc23)c2ccccc2n1C` [Example 71, (3R)-1-[5-[(1,2-dimethylindol-3-yl)sulfonylamino]-8-quinolyl]pyrrolidine-3-carboxylic acid], the half-inhibitory concentration (IC50) is 1100 nM.

Consider `Cc1c(S(=O)(=O)Nc2ccc(N3CC[C@@H](C(=O)O)C3)c3ccccc23)cnn1CC(C)C` [Example 49, (3R)-1-[4-[(1-isobutyl-5-methyl-pyrazol-4-yl)sulfonylamino]-1-naphthyl]pyrrolidine-3-carboxylic acid], for which the IC50 worked out at 2900 nM. In the case of `O=C(O)[C@@H]1CCN(c2ccc(NS(=O)(=O)c3cc(Cl)sc3Cl)c3ccccc23)C1` [Example 34, (3R)-1-[4-[(2,5-dichloro-3-thienyl)sulfonylamino]-1-naphthyl]pyrrolidine-3-carboxylic acid], the concentration for half-maximal inhibition (IC50) (read-out: IC50) was determined as 2900 nM. `Cc1nc(C)c(S(=O)(=O)Nc2ccc(N3CC[C@@H](C(=O)O)C3)c3ccccc23)s1` [Example 41, (3R)-1-[4-[(2,4-dimethylthiazol-5-yl)sulfonylamino]-1-naphthyl]pyrrolidine-3-carboxylic acid] displayed an IC50 of 1600 nM.
